In US20180334436A1 (VIIV HEALTHCARE UK LIMITED, priority 2015, published 2018):
pIC50: −log10 of the molar value.

System: HIV
Experiment: MT4 assay (anti-HIV activity)
Format: cell-based
Details: Human immunodeficiency virus 1, 96 h, antiviral HIV activity in HTLV-1 transformed cell line MT-4; luciferase read 96 hours later; 10 point dose response
Protocol: Antiviral HIV activity and cytotoxicity values for compounds of the invention from Table 1 were measured in parallel in the HTLV-1 transformed cell line MT-4 based on the method previously described (Hazen et al., 2007, In vitro antiviral activity of the novel, tyrosyl-based human immunodeficiency virus (HIV) type 1 protease inhibitor brecanavir (GW640385) in combination with other antiretrovirals and against a panel of protease inhibitor-resistant HIV (Hazen et al., “In vitro antiviral activity of the novel, tyrosyl-based human immunodeficiency virus (HIV) type 1 protease inhibitor brecanavir (GW640385) in combination with other antiretrovirals and against a panel of protease inhibitor-resistant HIV”, Antimicrob. Agents Chemother. 2007, 51: 3147-3154; and Pauwels et al., “Sensitive and rapid assay on MT-4 cells for the detection of antiviral compounds against the AIDS virus”, J. of Virological Methods 1987, 16: 171-185).
Luciferase activity was measured 96 hours later by adding a cell titer glo (Promega, Madison, Wis.). Percent inhibition of cell protection data was plotted relative to no compound control. Under the same condition, cytotoxicity of the compounds was determined using cell titer Glo™ (Promega, Madison, Wis.). IC50s were determined from a 10 point dose response curve using 3-4-fold serial dilution for each compound, which spans a concentration range >1000 fold.
These values are plotted against the molar compound concentrations using the standard four parameter logistic equation:
y=((Vmax*x̂n)/(K̂n+x̂n))+Y2
Y2=minimum y n=slope factor
Vmax=maximum y x=compound concentration [M]

| Compound | pIC50 |
| --- | --- |
| Cc1ccc(-c2c(C)c3c(c(C)c2[C@H](OC(C)(C)C)C(=O)O)CN(C(=O)OC(C)(C)C)CC3)cc1 [Example 17, (S)-2-(tert-Butoxy)-2-(2-(tert-butoxycarbonyl)-5,8-dimethyl-6-(p-tolyl)-1,2,3,4-tetrahydroisoquinolin-7-yl)acetic Acid] | 6.35 |
| Cc1c2c(c(C)c([C@H](OC(C)(C)C)C(=O)O)c1-c1ccc(Cl)cc1)CCN(S(=O)(=O)C1CCCCC1)C2 [Example 86, (S)-2-(tert-butoxy)-2-(7-(4-chlorophenyl)-2-(cyclohexylsulfonyl)-5,8-dimethyl-1,2,3,4-tetrahydroisoquinolin-6-yl)acetic Acid] | 7.42 |
| Cc1c(-c2c(C)c3c(c(C)c2[C@H](OC(C)(C)C)C(=O)O)C(C)(C)C(=O)N(C2CCCCC2)C3)cc(F)c2c1CCCO2 (atropisomer, axis not shown) [Example 109] | 8.40 |
| Cc1ccc(-c2c(C)c3c(c(C)c2[C@H](OC(C)(C)C)C(=O)O)CN(C(=O)N2CCCCC2)CC3)cc1 [Example 12, (S)-2-(tert-Butoxy)-2-(5,8-dimethyl-2-(piperidine-1-carbonyl)-6-(p-tolyl)-1,2,3,4-tetrahydroisoquinolin-7-yl)acetic Acid] | 6.86 |
| Cc1ccc(-c2c(C)c3c(c(C)c2[C@H](OC(C)(C)C)C(=O)O)CCN(C(=O)c2ccccn2)C3)cc1 [Example 42, (S)-2-(tert-butoxy)-2-(5,8-dimethyl-2-picolinoyl-7-(p-tolyl)-1,2,3,4-tetrahydroisoquinolin-6-yl)acetic Acid] | 5.94 |
| Cc1ccc(-c2c(C)c3c(c(C)c2[C@H](OC(C)(C)C)C(=O)O)CN(C(=O)N2CCC(C)(C)CC2)CC3)cc1 [Example 13, (S)-2-(tert-Butoxy)-2-(2-(4,4-dimethylpiperidine-1-carbonyl)-5,8-dimethyl-6-(p-tolyl)-1,2,3,4-tetrahydroisoquinolin-7-yl)acetic Acid] | 6.89 |
| Cc1ccc(-c2c(C)c3c(c(C)c2[C@H](OC(C)(C)C)C(=O)O)CN(S(=O)(=O)C2CCCCC2)CC3)cc1 [Example 19, (S)-2-(tert-Butoxy)-2-(2-(cyclohexylsulfonyl)-5,8-dimethyl-6-(p-tolyl)-1,2,3,4-tetrahydroisoquinolin-7-yl)acetic Acid] | 5.84 |
| Cc1ccc(-c2c(C)c3c(c(C)c2[C@H](OC(C)(C)C)C(=O)O)CCN(C2CCCCC2)C3)cc1 [Example 29, (S)-2-(tert-Butoxy)-2-(2-cyclohexyl-5,8-dimethyl-7-(p-tolyl)-1,2,3,4-tetrahydroisoquinolin-6-yl)acetic Acid] | 7.89 |
| Cc1ccc(-c2c(C)c3c(c(C)c2[C@H](OC(C)(C)C)C(=O)O)CCN(C(=O)C(C)(C)C)C3)cc1 [Example 24, (S)-2-(tert-Butoxy)-2-(5,8-dimethyl-2-pivaloyl-7-(p-tolyl)-1,2,3,4-tetrahydroisoquinolin-6-yl)acetic Acid] | 7.06 |
| Cc1ccc(-c2c(C)c3c(c(C)c2[C@H](OC(C)(C)C)C(=O)O)CCN(C(=O)CC(C)(C)C)C3)cc1 [Example 25, (S)-2-(tert-Butoxy)-2-(2-(3,3-dimethylbutanoyl)-5,8-dimethyl-7-(p-tolyl)-1,2,3,4-tetrahydroisoquinolin-6-yl)acetic Acid] | 7.02 |
| Cc1ccc(-c2c(C)c3c(c(C)c2[C@H](OC(C)(C)C)C(=O)O)CCN(S(=O)(=O)C(C)C)C3)cc1 [Example 66, (S)-2-(tert-butoxy)-2-(2-(isopropylsulfonyl)-5,8-dimethyl-7-(p-tolyl)-1,2,3,4-tetrahydroisoquinolin-6-yl)acetic Acid] | 7.32 |
| Cc1ccc(-c2c(C)c3c(c(C)c2[C@H](OC(C)(C)C)C(=O)O)CCN(CCC2CCCCC2)C3)cc1 [Example 39, (S)-2-(tert-butoxy)-2-(2-(2-cyclohexylethyl)-5,8-dimethyl-7-(p-tolyl)-1,2,3,4-tetrahydroisoquinolin-6-yl)acetic Acid] | 6.65 |
| COc1c(F)cccc1C(=O)N1CCc2c(C)c([C@H](OC(C)(C)C)C(=O)O)c(-c3cc(F)c4c(c3C)CCCO4)c(C)c2C1 [Example 82, (S)-2-(tert-Butoxy)-2-((R)-2-(3-fluoro-2-methoxybenzoyl)-7-(8-fluoro-5-methylchroman-6-yl)-5,8-dimethyl-1,2,3,4-tetrahydroisoquinolin-6-yl)acetic Acid] | 7.70 |
| Cc1ccc(-c2c(C)c3c(c(C)c2[C@H](OC(C)(C)C)C(=O)O)CCN(C2CCOCC2)C3)cc1 [Example 28, (S)-2-(tert-Butoxy)-2-(5,8-dimethyl-2-(tetrahydro-2H-pyran-4-yl)-7-(p-tolyl)-1,2,3,4-tetrahydroisoquinolin-6-yl)acetic Acid] | 6.42 |
| Cc1ccc(-c2c(C)c3c(c(C)c2[C@H](OC(C)(C)C)C(=O)O)CCN(Cc2ccccc2)C3)cc1 [Example 55, (S)-2-(2-benzyl-5,8-dimethyl-7-(p-tolyl)-1,2,3,4-tetrahydroisoquinolin-6-yl)-2-(tert-butoxy)acetic Acid] | 6.46 |
| Cc1ccc(-c2c(C)c3c(c(C)c2C(OC(C)(C)C)C(=O)O)CN(C(=O)c2cccc(F)c2)CC3)cc1 (stereo not shown) [Example 6] | 6.46 |
| Cc1ccc(C(=O)N2CCc3c(C)c([C@H](OC(C)(C)C)C(=O)O)c(-c4cc(F)c5c(c4C)CCCO5)c(C)c3C2)cn1 [Example 96, (S)-2-(tert-Butoxy)-2-((R)-7-(8-fluoro-5-methylchroman-6-yl)-5,8-dimethyl-2-(6-methylnicotinoyl)-1,2,3,4-tetrahydroisoquinolin-6-yl)acetic Acid] | 6.96 |
| Cc1ccc(-c2c(C)c3c(c(C)c2[C@H](OC(C)(C)C)C(=O)O)CCN(c2ccccc2)C3)cc1 [Example 36, (S)-2-(tert-Butoxy)-2-(5,8-dimethyl-2-phenyl-7-(p-tolyl)-1,2,3,4-tetrahydroisoquinolin-6-yl)acetic Acid] | 6.83 |
| Cc1c(-c2c(C)c3c(c(C)c2[C@H](OC(C)(C)C)C(=O)O)CCN(C(=O)c2ccccc2)C3)cc(F)c2c1CCCO2 [Example 91, (S)-2-((R)-2-Benzoyl-7-(8-fluoro-5-methylchroman-6-yl)-5,8-dimethyl-1,2,3,4-tetrahydroisoquinolin-6-yl)-2-(tert-butoxy)acetic Acid] | 7.32 |
| Cc1ccc(-c2c(C)c3c(c(C)c2[C@H](OC(C)(C)C)C(=O)O)CCN(S(=O)(=O)C2CCCC2)C3)cc1 [Example 65, (S)-2-(tert-butoxy)-2-(2-(cyclopentylsulfonyl)-5,8-dimethyl-7-(p-tolyl)-1,2,3,4-tetrahydroisoquinolin-6-yl)acetic Acid] | 7.92 |
| Cc1c(-c2c(C)c3c(c(C)c2[C@H](OC(C)(C)C)C(=O)O)CC(=O)N(Cc2ccccc2)C3)cc(F)c2c1CCCO2 (atropisomer, axis not shown; (M)) [Example 102, (S)(M)-2-(2-benzyl-7-(8-fluoro-5-methylchroman-6-yl)-5,8-dimethyl-3-oxo-1,2,3,4-tetrahydroisoquinolin-6-yl)-2-(tert-butoxy)acetic Acid] | 8.52 |
| Cc1ccc(-c2c(C)c3c(c(C)c2[C@H](OC(C)(C)C)C(=O)O)CCN(CC2CCCCC2)C3)cc1 [Example 31, (S)-2-(tert-Butoxy)-2-(2-(cyclohexylmethyl)-5,8-dimethyl-7-(p-tolyl)-1,2,3,4-tetrahydroisoquinolin-6-yl)acetic Acid] | 7.30 |
